ChEMBL document CHEMBL5338747, “Discovery of Quaternized Pyridine-Thiazole-Pleuromutilin Derivatives with Broad-Spectrum Antibacterial and Potent Anti-MRSA Activity” (J Med Chem, 2023)
Calls of active or inactive are those of the source. The calls are words filed in the database; no cut-off is given here.

Key:
[1] = system: Cell membrane; experiment: Disruption of bacterial cell membrane in methicillin-resistant Staphylococcus aureus ATCC 33591 assessed as severe depression on the cell surface,cell rupture and leakage of intracellular components at 4XMIC incubated for 4 hrs by FESEM analysis; format: subcellular
[2] = Volume of distribution at steady state in Sprague-Dawley rat at 1 mg/kg, iv by LC-MS analysis; format: ADME, organism-based; conditions: in vivo, read-out: Vdss
[3] = system: Cell membrane; experiment: Disruption of bacterial cell membrane in methicillin-resistant Staphylococcus aureus ATCC 33591 assessed as increase in fluorescence intensity at 8XMIC measured within 3 mins by DiBAC4(3) dye based fluorescence analysis relative to control; format: subcellular
[4] = Cytotoxicity against human HepG2 cells assessed as reduction in cell viability measured after 48 hrs by CCK8 assay; format: toxicity, cell-based
[5] = system: Staphylococcus aureus; experiment: Antibacterial activity against methicillin-resistant Staphylococcus aureus 206 assessed as inhibition of bacterial growth incubated for 24 hrs by broth microdilution method; format: functional

C=C[C@]1(C)C[C@@H](OC(=O)CSc2nc(-c3cc[n+](Cc4ccc(C)cc4)cc3)cs2)[C@]2(C)[C@H](C)CC[C@]3(CCC(=O)[C@H]32)[C@@H](C)[C@@H]1O.[Br-]
Activity [1]: Active | Vd [2]: 2.1 L/kg | fold change (FC) [3]: 6 | CC50 at 48 h [4]: 89.8 µM | MIC [5]: 2 µg/mL
